# Data reported in patent US6794395B1, “Substituted indolinones, their manufacture and their use as medicaments” (Boehringer Ingelheim Pharma GmbH & Co. KG, priority 1999, dated 2004).
# Tested on: not listed separately
# Experiment: Tolerance test on mice (oral LD50)
# Conditions: mouse, in vivo, read-out: approximate oral LD50
# Description: In addition the compound of Example 1 (6) was tested on mice for its tolerance. The approximate oral LD50 for this compound is over 1,000 mg/kg. The compounds of general formula I are therefore well tolerated.
row,Structure (SMILES),LD50
1,"COc1cc2c(cc1OC)/C(=C(/Nc1ccc(CN(C)C)cc1)c1ccccc1)C(=O)N2 [Example 1 (6), 3-(Z)-(1-(4-(dimethylaminomethyl)-anilino]-1-phenyl-methylidene}-5,6-dimethoxy-2-indolinone]",> 1000 mg/kg

# Tested on: Human umbilical endothelial cells (HUVEC)
# Experiment: Inhibition of VEGF165-stimulated HUVEC proliferation (3H-thymidine incorporation)
# Assay type: cell-based
# Conditions: HUVEC proliferation stimulated with 5 ng/ml VEGF165 and 10 μg/ml heparin, 76 h + 16 h 3H-thymidine
# Description: Human umbilical endothelial cells (HUVEC) were cultivated in IMDM (Gibco BRL), supplemented with 10% foetal calf serum (FBS) (Sigma), 50 μM of β-mercaptoethanol (Fluka), standard antibiotics, 15 μg/ml of endothelial cell growth factor (ECGS, Collaborative Biomedical Products) and 100 μg/ml of heparin (Sigma) on gelatine-coated culture dishes (0.2% gelatine, Sigma) at 37° C., under 5% CO2 in a water-saturated atmosphere.
# In order to investigate the inhibitory activity of the compounds according to the invention the cells were “starved” for 16 hours, i.e. kept in culture medium without growth factors (ECGS+heparin). The cells were detached from the culture dishes using trypsin/EDTA and washed once in serum-containing medium. Then they were seeded out in amounts of 2.5×10^3 cells per well.
# The proliferation of the cells was stimulated with 5 ng/ml of VEGF165 (vascular endothelial growth factor; H. Weich, GBF Braunschweig) and 10 μg/ml of heparin. As a control, 6 wells in each dish were not stimulated.
# The compounds according to the invention were dissolved in 100% dimethylsulphoxide and added to the cultures in various dilutions as triple measurements, the maximum dimethyl sulphoxide concentration being 0.3%.
# The cells were incubated for 76 hours at 37° C., then for a further 16 hours ^3H-thymidine (0.1 μCi/well, Amersham) was added in order to determine the DNA synthesis. Then the radioactively labelled cells were immobilised on filter mats and the radioactivity incorporated was measured in a β-counter. In order to determine the inhibitory activity of the compounds according to the invention the mean value of the non-stimulated cells was subtracted from the mean value of the factor-stimulated cells (in the presence or absence of the compounds according to the invention).
# The relative cell proliferation was calculated as a percentage of the control (HUVEC without inhibitor) and the concentration of active substance which inhibits the proliferation of the cells by 50% (IC50) was determined.
row,Structure (SMILES),IC50
1,"COc1cc2c(cc1OC)/C(=C(/Nc1ccc(N(CCCN(C)C)C(C)=O)cc1)c1ccccc1)C(=O)N2 [1 (18), 3-(Z)-(1-{4-[N-acetyl-N-(3-dimethylamino-propyl)-amino]-anilino}-1-phenyl-methylidene)-5,6-dimethoxy-2-indolinone]",40 nM
2,"COc1cc2c(cc1OC)/C(=C(/Nc1ccc(CN3CCCCC3)cc1)c1ccccc1)C(=O)N2 [Example 1, 3-(Z)-{1-[4-(piperidin-1-yl-methyl)-anilino]-1-phenyl-methylidene}-5,6-dimethoxy-2-indolinone]",30 nM
3,"Nc1ccc2c(c1)NC(=O)/C2=C(\Nc1ccc(CN2CCCCC2)cc1)c1ccccc1 [Example 4, 6-amino-3-(Z)-{1-[4-(piperidin-1-yl-methyl)-anilino]-1-phenyl-methylidene}-2-indolinone]",40 nM
4,"CC/C(Nc1ccc(N(C)C(=O)CN(C)C)cc1)=C1/C(=O)Nc2cc(OC)c(OC)cc21 [1 (50), 3-(Z)-{1-[4-(N-dimethylaminomethylcarbonyl-N-methylamino)-anilino]-1-ethyl-methylidene}-5,6-dimethoxy-2-indolinone]",830 nM
5,"COc1cc2c(cc1OC)/C(=C(/Nc1ccc(N(C)C(=O)CN(C)C)cc1)c1ccccc1)C(=O)N2 [1 (8), 3-(Z)-{1-[4-(N-dimethylaminomethylcarbonyl-N-methyl-amino)-anilino]-1-phenyl-methylidene}-5,6-dimethoxy-2-indolinone]",50 nM
6,"COc1cc2c(cc1OC)/C(=C(/Nc1ccc(CN(C)Cc3ccccc3)cc1)c1ccccc1)C(=O)N2 [1 (3), 3-(Z)-(1-{4-[(N-benzyl-N-methyl-amino)-methyl)-anilino}-1-phenyl-methylidene)-5,6-dimethoxy-2-indolinone]",270 nM
7,"COc1cc2c(cc1OC)/C(=C(/Nc1ccc(CN(C)C)cc1)c1ccccc1)C(=O)N2 [Example 1 (6), 3-(Z)-(1-(4-(dimethylaminomethyl)-anilino]-1-phenyl-methylidene}-5,6-dimethoxy-2-indolinone]",20 nM
8,"COc1cc2c(cc1OC)/C(=C(/Nc1ccc(CCN3CCC(C(=O)N(C)C)CC3)cc1)c1ccccc1)C(=O)N2 [Example 3, 3-(Z)-(1-{4-[2-(4-dimethylcarbamoyl-piperidin-1-yl)-ethyl]-anilino}-1-phenyl-methylidene)-5,6-dimethoxy-2-indolinone]",50 nM
9,"COc1cc2c(cc1OC)/C(=C(/Nc1ccc(N(CCN(C)C)C(C)=O)cc1)c1ccccc1)C(=O)N2 [1 (17), 3-(Z)-(1-{4-[N-acetyl-N-(2-dimethylamino-ethyl)-amino]-anilino}-1-phenyl-methylidene)-5,6-dimethoxy-2-indolinone]",40 nM
